According to ChEMBL document CHEMBL4002613, “Shape-based virtual screening, synthesis and evaluation of novel pyrrolone derivatives as antiviral agents against HCV” (Bioorg Med Chem Lett, 2017):
Each block holds one compound with its values, some of them ahead of it.

How the values were obtained:
Hepatitis C virus = assay: Antiviral activity against Hepatitis C virus genotype 1b infected in human HuH5.2 cells after 72 hrs by luciferase reporter gene assay; type: functional, cell-based, Hepacivirus hominis
[1] = (§1) Cytotoxicity against human HuH5.2 cells assessed as anti-metabolic effect after 72 hrs by MTT assay; type: ADME, cell-based, Huh-5-2; details: HuH5.2 (Huh-5-2) cells
[2] = Selectivity index, ratio of CC50 for human HuH5.2 cells to EC50 for Hepatitis C virus genotype 1b infected in human HuH5.2 cells; type: toxicity, cell-based; details: for selectivity ratio: HuH5.2 cells, read-out: Ratio CC50/EC50
[3] = Inhibition of Hepatitis C virus genotype 1b NS3 helicase unwinding activity using fluorescent DNA substrate by molecular beacon assay; set-up: species or system Hepatitis C virus subtype 1b
[4] = Inhibition of Hepatitis C virus genotype 1b Con1 NS3 helicase ATP hydrolysis activity using ATP as substrate in presence of poly U RNA; set-up: species or system Hepatitis C virus (isolate Con1)
Huh-5-2 = assay: as §1; type: ADME, cell-based; details: huh-5-2, 72 h, 72 h
[5] = Hepatitis C virus, genotype 1b, Huh-5-2, 72 h

Compound: O=C1/C(=C\c2ccc(-c3ccccc3)cc2)C=C(c2ccccc2)N1c1ccccc1
EC50 (Hepatitis C virus; [5]): 16.1 µM
EC90 (Hepatitis C virus; [5]): 61.7 µM
CC50 at 72 h [1]: 156 µM
selectivity ratio [2]: 9.7
IC50 [3]: > 1000 µM

Compound: O=C1/C(=C\c2ccccc2)C=C(c2ccccc2)N1c1ccccc1
EC50 (Hepatitis C virus; [5]): 4.7 µM
EC90 (Hepatitis C virus; [5]): 14 µM
CC50 at 72 h [1]: 30.3 µM
selectivity ratio [2]: 6.4
IC50 [3]: > 1000 µM

IC50 [3]: 0.3 µM
Compound: O=C(O)C1=CC(=C(c2ccc(O)c(C(=O)O)c2)c2ccc(O)c(C(=O)O)c2)C=CC1=O [AURINTRICARBOXYLIC ACID]

Compound: CCOC(=O)c1ccc(/C=C2/C=C(c3ccccc3)N(c3ccc(C)cc3)C2=O)cc1
EC50 (Hepatitis C virus; [5]): 22.5 µM
EC90 (Hepatitis C virus; [5]): 81.1 µM
CC50 at 72 h [1]: > 244 µM
selectivity ratio [2]: > 11
IC50 [3]: > 1000 µM

Compound: O=C1/C(=C\c2ccc(Br)cc2)C=C(c2ccccc2)N1c1ccccc1
EC50 (Hepatitis C virus; [5]): 4.3 µM
EC90 (Hepatitis C virus; [5]): 11.6 µM
CC50 at 72 h [1]: 25.7 µM
selectivity ratio [2]: 6
IC50 [3]: > 1000 µM

Compound: CN(C)c1ccc(/C=C2\C(=O)N(c3ncc(-c4ccc(Cl)cc4)s3)N=C2c2ccccc2)cc1
EC50 (Hepatitis C virus; [5]): 147 µM
EC90 (Hepatitis C virus; [5]): > 206 µM
CC50 at 72 h [1]: > 206 µM
selectivity ratio [2]: > 1.4

Compound: CN1CCN(CC2=C(O)C(=O)N(CCc3ccccc3)C3C=CC=CN23)CC1 (configuration not stated)
EC50 (Hepatitis C virus; [5]): 235 µM
EC90 (Hepatitis C virus; [5]): > 264 µM
CC50 at 72 h [1]: > 264 µM

Compound: Oc1c(CN2CCOCC2)cc(CN2CCOCC2)cc1CN1CCOCC1
EC50 (Hepatitis C virus; [5]): > 255 µM
EC90 (Hepatitis C virus; [5]): > 255 µM
CC50 at 72 h [1]: > 255 µM

Compound: N=c1c(S(=O)(=O)c2ccc(Cl)cc2)cc2c(=O)n3ccccc3nc2n1CCN1CCOCC1
EC50 (Hepatitis C virus; [5]): 28 µM
EC90 (Hepatitis C virus; [5]): 97.6 µM
CC50 at 72 h [1]: 151 µM
selectivity ratio [2]: 5.4

Compound: Cc1ccc(N2C(=O)/C(=C\c3ccccc3)C=C2c2ccccc2)c(Br)c1
EC50 (Hepatitis C virus; [5]): 4.1 µM
EC90 (Hepatitis C virus; [5]): 12.4 µM
CC50 at 72 h [1]: > 240 µM
selectivity ratio [2]: > 58
IC50 [3]: > 1000 µM
IC50 [4]: 620 µM

Compound: CCOC(=O)c1ccc(/C=C2/C=C(c3ccccc3)N(c3ccc(C)cc3C)C2=O)cc1
EC50 (Hepatitis C virus; [5]): 0.8 to 43.1 µM
CC50 at 72 h [1]: 47 to 90.8 µM
selectivity ratio [2]: 2.1 to 58.8
IC50 [3]: > 1000 µM

IC50 [3]: 10 µM
Compound: Cc1ccc2nc(-c3ccc4nc(-c5ccc(N)cc5)sc4c3)sc2c1S(=O)(=O)O

Compound: CCOC(=O)c1ccc(/C=C2\C=C(c3ccccc3)N(c3ccc(C)cc3Br)C2=O)cc1 (stereo in doubt; form 1)
EC90 (Hepatitis C virus): 149 µM
EC50 (Hepatitis C virus; [5]): 38 to 38.3 µM
CC50 at 72 h [1]: 204 to 205 µM

Compound: CN1CCN(Cc2c3c(c(CN4CCN(C)CC4)c4c2CCC4)CCC3)CC1
EC50 (Hepatitis C virus; [5]): 7.7 µM
CC50 at 72 h [1]: 36.9 µM
selectivity ratio [2]: 4.8

Compound: COc1ccc(/C=C2/C=C(c3ccccc3)N(c3ccccc3)C2=O)cc1
EC50 (Hepatitis C virus; [5]): 5.9 µM
EC90 (Hepatitis C virus; [5]): 21.6 µM
CC50 at 72 h [1]: 97.2 µM
selectivity ratio [2]: 18
IC50 [3]: 438 µM

Compound: CCOC(=O)c1ccc(/C=C2\C=C(c3ccccc3)N(c3ccc(C)cc3Br)C2=O)cc1 (stereo in doubt; form 2)
EC50 (Hepatitis C virus): 20.3 µM
EC90 (Hepatitis C virus): 61.7 µM
CC50 (Huh-5-2): > 205 µM
Ratio CC50/EC50 [2]: > 10
IC50 [3]: > 1000 µM

Compound: CCOC(=O)c1ccc(/C=C2/C=C(c3ccccc3)N(c3ccccc3)C2=O)cc1
EC50 (Hepatitis C virus; [5]): 27.2 µM
EC90 (Hepatitis C virus; [5]): 100 µM
CC50 at 72 h [1]: 112 µM
selectivity ratio [2]: 4
IC50 [3]: > 1000 µM
